Measured values taken from publication PMC3580017 (Journal of natural products, 2013).

Tested on: HT-29 human colon cancer cells
Test: Cytotoxicity against HT-29 human colon cancer cells
Assay type: cell-based
Details: HT-29 versus CCD-112CoN

Structure (SMILES): CCCC/C=C/C=C/C=C/[C@@H]1CC[C@@H](O)[C@H](C)N1C [Compound 1, (2S,3R,6S)-6-((1E,3E,5E)-deca-1,3,5-trien-1-yl)-1,2-dimethylpiperidin-3-ol]
- selectivity ratio for cancerous colon cells versus normal colon cells: approximately 4
